The values below are quoted from earlier work in paper PMC2978073 (Journal of medicinal chemistry, 2010).

Series [1] relates to rabbit model for cerebral palsy.
The conditions of series [2]: compared with 3.

Regarding `Cc1cc(N)nc(C[C@H]2CNC[C@H]2NCCNCc2ccc(Cl)cc2)c1` (racemic) [(±)-2], in series [1], the “effect on eNOS-regulated blood pressure” value is reported as “without affecting eNOS-regulated blood pressure”, the hypoxia-ischemia induced death result is “prevent hypoxia-ischemia induced death” and the “number of newborn kits exhibiting cerebral palsy phenotype” value was “reduce the number of newborn kits exhibiting cerebral palsy phenotype”.

Take `Cc1cc(N)nc(C[C@H]2CNC[C@H]2NCCNCCc2cccc(F)c2)c1` (racemic) [(±)-3]: in series [1], the “effect on eNOS-regulated blood pressure” value is “without affecting eNOS-regulated blood pressure”, the hypoxia-ischemia induced death result is given as “prevent hypoxia-ischemia induced death” and the “number of newborn kits exhibiting cerebral palsy phenotype” value was “reduce the number of newborn kits exhibiting cerebral palsy phenotype”.

For `Cc1cc(N)nc(C[C@H]2CNC[C@H]2OCCNCCc2cccc(F)c2)c1` (racemic) [(±)-4], the bioavailability result in series [2] was “improved bioavailability”.
